Data on 1 compound can be found in article PMC10924921, “Mi-2β promotes immune evasion in melanoma by activating EZH2 methylation” (Nature Communications, 2024).

Holding throughout (test): biochemical
Common to all, as to parameters: KINOMEscan active-site competition binding panel (468 kinase assays), per cent of control at 1000 nM
Common to all, as to conditions: KINOMEscan per cent of control (binding competition); read-out: Percent Control

The target in one test is CLK1 (Homo sapiens, UniProt P49759). The text has this: (§1) Figure S7 / Percent Control
Sequence of CLK1 (P49759 whole entry): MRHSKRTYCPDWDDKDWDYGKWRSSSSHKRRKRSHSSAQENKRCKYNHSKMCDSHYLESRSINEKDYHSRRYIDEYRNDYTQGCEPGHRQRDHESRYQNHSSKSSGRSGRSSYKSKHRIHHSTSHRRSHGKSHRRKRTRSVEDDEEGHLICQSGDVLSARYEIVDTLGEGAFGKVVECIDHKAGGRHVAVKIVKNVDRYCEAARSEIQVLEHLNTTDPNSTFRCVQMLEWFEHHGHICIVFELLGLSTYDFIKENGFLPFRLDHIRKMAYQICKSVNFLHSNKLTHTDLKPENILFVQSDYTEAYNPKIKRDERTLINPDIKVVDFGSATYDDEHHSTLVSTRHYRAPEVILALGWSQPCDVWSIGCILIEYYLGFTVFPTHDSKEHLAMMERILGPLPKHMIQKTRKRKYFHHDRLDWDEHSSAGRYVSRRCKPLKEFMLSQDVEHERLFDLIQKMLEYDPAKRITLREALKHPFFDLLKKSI
The next test concerns the target PIK3C2G (Homo sapiens, UniProt O75747).
Description: as §1

The target of a further test is EGFR(S752-I759del) (Homo sapiens, UniProt P00533, DEL752-759).
Description: as §1

Another test has as its target T1, RIPK5 (Homo sapiens, UniProt Q6XUX3).
T1 construct: gene DSTYK
Description: as §1

For another test, the target named is HIPK4 (Homo sapiens, UniProt Q8NE63).
Description: as §1

The next test deals with EIF2AK1 (Homo sapiens, UniProt Q9BQI3).
Description: as §1

In the next test the target is PIK3CA(I800L) (Homo sapiens, UniProt P42336, I800L).
Sequence of PIK3CA(I800L) (P42336 whole entry I800L): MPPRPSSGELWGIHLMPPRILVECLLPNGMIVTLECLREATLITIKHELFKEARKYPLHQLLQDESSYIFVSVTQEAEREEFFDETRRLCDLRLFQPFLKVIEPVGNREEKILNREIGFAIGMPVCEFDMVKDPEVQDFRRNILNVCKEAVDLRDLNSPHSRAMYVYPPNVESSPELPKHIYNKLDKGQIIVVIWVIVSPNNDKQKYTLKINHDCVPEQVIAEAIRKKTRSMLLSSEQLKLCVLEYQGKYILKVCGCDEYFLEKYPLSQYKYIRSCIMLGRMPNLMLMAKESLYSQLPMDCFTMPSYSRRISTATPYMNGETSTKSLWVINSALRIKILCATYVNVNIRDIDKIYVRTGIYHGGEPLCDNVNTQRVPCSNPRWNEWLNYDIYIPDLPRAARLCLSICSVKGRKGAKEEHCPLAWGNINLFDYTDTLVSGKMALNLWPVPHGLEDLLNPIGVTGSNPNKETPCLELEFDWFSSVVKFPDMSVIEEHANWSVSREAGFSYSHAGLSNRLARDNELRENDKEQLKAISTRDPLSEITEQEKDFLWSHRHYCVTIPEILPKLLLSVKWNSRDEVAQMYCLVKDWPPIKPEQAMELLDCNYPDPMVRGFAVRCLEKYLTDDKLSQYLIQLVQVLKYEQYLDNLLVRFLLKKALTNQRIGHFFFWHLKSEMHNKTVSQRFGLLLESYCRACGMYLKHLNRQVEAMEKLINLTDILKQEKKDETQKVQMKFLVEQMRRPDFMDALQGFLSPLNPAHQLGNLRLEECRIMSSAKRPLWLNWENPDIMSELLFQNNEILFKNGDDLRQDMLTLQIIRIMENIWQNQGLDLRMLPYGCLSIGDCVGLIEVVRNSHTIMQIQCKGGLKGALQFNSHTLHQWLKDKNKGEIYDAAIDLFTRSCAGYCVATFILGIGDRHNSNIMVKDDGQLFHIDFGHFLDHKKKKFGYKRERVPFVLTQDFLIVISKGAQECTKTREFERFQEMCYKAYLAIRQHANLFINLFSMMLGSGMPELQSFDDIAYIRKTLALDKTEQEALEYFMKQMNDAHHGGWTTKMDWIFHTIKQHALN
Description: as §1

Another test addresses PIM1 (Homo sapiens, UniProt P11309).
Description: as §1

The next test has as its target HASPIN (Homo sapiens, UniProt Q8TF76).
Description: as §1

In a further test the target is CSNK2A1 (Homo sapiens, UniProt P68400).
Description: as §1

A further test has as its target MAP3K3 (Homo sapiens, UniProt Q99759).
Description: as §1

The target of a further test is T2, DRAK2 (Homo sapiens, UniProt O94768).
T2 construct: gene STK17B
Description: as §1

Another test deals with TSSK1B (Homo sapiens, UniProt Q9BXA7).
Sequence of TSSK1B (Q9BXA7 whole entry): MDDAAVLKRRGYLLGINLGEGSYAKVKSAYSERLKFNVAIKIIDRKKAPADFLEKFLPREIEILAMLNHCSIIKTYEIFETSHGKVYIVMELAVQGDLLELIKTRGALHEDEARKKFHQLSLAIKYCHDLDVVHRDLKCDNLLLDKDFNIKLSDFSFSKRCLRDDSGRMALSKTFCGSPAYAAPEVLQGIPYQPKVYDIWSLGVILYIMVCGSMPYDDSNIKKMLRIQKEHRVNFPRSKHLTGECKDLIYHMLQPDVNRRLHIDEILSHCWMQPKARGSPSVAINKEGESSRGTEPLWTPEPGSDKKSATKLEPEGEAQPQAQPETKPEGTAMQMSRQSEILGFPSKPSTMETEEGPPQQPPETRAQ
Description: as §1

The next test has as its target T3, PYK2 (Homo sapiens, UniProt Q14289).
T3 construct: gene PTK2B
Description: as §1

In the next test the target is DYRK1B (Homo sapiens, UniProt Q9Y463).
Sequence of DYRK1B (Q9Y463 whole entry): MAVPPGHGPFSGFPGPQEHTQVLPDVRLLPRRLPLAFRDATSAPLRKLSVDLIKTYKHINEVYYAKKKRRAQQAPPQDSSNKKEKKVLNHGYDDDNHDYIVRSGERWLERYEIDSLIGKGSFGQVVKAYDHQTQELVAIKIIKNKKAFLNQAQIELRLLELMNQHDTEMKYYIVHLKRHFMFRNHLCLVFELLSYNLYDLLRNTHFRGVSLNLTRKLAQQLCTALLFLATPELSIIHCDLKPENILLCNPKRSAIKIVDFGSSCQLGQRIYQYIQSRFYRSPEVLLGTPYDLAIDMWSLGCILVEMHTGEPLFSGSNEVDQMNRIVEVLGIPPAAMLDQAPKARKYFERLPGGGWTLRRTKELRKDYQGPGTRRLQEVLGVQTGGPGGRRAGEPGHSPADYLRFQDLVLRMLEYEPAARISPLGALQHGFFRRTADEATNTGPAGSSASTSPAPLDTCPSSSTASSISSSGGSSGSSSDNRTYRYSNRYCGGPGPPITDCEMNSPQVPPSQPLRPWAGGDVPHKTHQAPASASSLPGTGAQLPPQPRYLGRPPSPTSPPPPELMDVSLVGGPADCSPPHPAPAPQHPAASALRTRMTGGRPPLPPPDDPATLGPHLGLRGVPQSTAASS
Description: as §1

A further test addresses NEK11 (Homo sapiens, UniProt Q8NG66).
Description: as §1

The target in the next test is T4, AMPK-alpha1 (Homo sapiens, UniProt Q13131).
T4 construct: gene PRKAA1
Description: as §1

Another test deals with PIK3CA(C420R) (Homo sapiens, UniProt P42336, C420R).
Sequence of PIK3CA(C420R) (P42336 whole entry C420R): as the sequence (P42336 whole entry I800L) above, with C420R, L800I counted along it
Description: as §1

The target of another test is EGFR (Homo sapiens, UniProt P00533).
Description: as §1

For a further test, the target named is ACVR2A (Homo sapiens, UniProt P27037).
Description: as §1

Test [1] concerns the target EGFR(L747-S752del, P753S) (Homo sapiens, UniProt P00533, DEL747-752/P753S).
Description: as §1

Another test addresses T5, DLK (Homo sapiens, UniProt Q12852).
T5 construct: gene MAP3K12
Description: as §1

The target of another test is T6, IKK-epsilon (Homo sapiens, UniProt Q14164).
T6 construct: gene IKBKE
Description: as §1

The target in a further test is GSK3A (Homo sapiens, UniProt P49840).
Description: as §1

Sequence of PIM1 (P11309 whole entry): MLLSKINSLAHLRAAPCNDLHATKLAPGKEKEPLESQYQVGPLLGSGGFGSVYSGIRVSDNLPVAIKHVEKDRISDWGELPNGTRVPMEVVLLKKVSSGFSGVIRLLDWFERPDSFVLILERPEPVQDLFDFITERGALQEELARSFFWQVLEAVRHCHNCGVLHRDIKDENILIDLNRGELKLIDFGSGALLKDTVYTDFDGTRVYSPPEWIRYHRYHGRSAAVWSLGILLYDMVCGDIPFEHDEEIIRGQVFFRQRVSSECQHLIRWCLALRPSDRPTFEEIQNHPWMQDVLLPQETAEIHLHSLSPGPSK
T5 sequence (Q12852 whole entry): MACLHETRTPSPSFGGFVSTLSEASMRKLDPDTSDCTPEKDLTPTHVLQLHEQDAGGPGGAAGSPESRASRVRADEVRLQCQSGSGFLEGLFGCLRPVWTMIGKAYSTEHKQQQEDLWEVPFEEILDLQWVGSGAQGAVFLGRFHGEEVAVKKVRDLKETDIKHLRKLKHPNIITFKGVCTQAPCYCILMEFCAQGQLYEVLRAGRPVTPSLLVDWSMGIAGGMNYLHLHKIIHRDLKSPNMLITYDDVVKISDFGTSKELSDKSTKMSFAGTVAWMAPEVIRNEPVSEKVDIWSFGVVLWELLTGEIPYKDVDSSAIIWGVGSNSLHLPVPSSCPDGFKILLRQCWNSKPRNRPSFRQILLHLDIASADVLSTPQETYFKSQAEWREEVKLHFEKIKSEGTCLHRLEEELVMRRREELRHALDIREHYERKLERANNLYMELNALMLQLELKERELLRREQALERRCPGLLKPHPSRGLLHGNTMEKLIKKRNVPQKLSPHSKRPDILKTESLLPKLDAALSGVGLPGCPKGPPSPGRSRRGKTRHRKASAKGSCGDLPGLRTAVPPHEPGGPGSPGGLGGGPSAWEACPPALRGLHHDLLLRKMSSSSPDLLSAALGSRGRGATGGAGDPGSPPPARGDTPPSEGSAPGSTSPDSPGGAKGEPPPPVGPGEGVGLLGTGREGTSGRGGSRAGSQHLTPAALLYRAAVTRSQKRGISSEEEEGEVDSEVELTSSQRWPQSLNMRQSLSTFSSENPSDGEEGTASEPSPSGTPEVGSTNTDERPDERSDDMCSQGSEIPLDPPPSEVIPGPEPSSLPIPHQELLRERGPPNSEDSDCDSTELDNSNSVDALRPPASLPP
Sequence of EGFR(L747-S752del, P753S) (P00533 with tags, fused parts or gaps DEL747-752/P753S): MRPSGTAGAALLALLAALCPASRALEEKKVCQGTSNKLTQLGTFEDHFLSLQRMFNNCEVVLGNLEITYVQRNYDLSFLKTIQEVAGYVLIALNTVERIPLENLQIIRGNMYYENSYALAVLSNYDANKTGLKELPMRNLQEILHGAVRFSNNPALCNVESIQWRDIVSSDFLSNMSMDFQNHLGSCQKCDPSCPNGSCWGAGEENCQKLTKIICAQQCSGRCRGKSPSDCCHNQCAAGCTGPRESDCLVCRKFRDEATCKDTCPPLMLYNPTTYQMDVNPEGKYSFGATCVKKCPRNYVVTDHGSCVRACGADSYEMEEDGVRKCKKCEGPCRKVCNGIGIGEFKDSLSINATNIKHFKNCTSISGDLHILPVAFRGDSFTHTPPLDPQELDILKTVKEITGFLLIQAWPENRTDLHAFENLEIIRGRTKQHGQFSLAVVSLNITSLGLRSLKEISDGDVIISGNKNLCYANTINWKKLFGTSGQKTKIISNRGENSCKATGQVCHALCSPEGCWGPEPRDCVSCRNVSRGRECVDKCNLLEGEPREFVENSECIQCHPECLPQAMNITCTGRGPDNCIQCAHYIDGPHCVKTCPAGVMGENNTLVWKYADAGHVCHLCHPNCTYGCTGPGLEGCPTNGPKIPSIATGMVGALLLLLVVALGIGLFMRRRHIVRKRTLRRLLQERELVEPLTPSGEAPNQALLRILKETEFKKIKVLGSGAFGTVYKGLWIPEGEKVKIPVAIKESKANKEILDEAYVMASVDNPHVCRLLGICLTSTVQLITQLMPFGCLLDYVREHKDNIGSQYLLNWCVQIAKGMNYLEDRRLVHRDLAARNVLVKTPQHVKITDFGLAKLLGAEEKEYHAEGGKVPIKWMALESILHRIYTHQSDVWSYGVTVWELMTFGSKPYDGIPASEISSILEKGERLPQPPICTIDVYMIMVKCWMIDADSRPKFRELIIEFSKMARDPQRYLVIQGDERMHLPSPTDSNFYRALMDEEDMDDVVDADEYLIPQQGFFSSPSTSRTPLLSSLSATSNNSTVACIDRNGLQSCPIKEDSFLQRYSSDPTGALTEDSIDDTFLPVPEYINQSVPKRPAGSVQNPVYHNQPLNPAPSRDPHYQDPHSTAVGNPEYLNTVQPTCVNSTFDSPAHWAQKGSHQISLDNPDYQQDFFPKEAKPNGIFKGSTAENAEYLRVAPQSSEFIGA

`Cn1c(=O)[nH]c2ccc(-c3cccc(C(=O)NC4CCn5ccnc5C4)c3)cc21` (stereo not drawn) [Z36-MP5]: the remaining binding at 1 µM at CLK1 came out at 96%; on PIK3C2G, 100%; at EGFR(S752-I759del), 55%; on RIPK5, 54%; on HIPK4, 91%; on EIF2AK1, 73%. Besides, the remaining binding at 1 µM at PIK3CA(I800L) came out at 94%; on PIM1, 90%; at HASPIN, 71%; on CSNK2A1, 61%; on MAP3K3, 55%; at DRAK2 it was 79%. For the same compound, the remaining binding at 1 µM at TSSK1B came out at 92%; at PYK2 it was 93%; at DYRK1B, 86%; on NEK11 it was 33%; at AMPK-alpha1, 92%; on PIK3CA(C420R), 91%. Also, the remaining binding at 1 µM on EGFR turned out to be 97%; on ACVR2A, 57%; in [1], 51%; at DLK, 62%; at IKK-epsilon, 84%; on GSK3A, 95%.
